Measurements as given in article PMC9788418, “Design, Synthesis and Biological Evaluation of Syn and Anti-like Double Warhead Quinolinones Bearing Dihydroxy Naphthalene Moiety as Epidermal Growth Factor Receptor Inhibitors with Potential Apoptotic Antiproliferative Action” (Molecules, 2022).

Columns and labels:
Format in all cases: cell-based, human
Cytochrome C = Cytochrome C assay; conditions: for Cytochrome C Conc: A-549; for Cytochrome C Fold Change: A-549, vs control
Method: The concentration of Cytochrome c in a cell is crucial for activating caspases and starting the intrinsic apoptosis process. […]
(§1) plate cover and incubate at room temperature, on a microplate shaker at 100 rpm if available, for 1 hour. Remove plate cover and empty the wells. Wash microwell strips 3 times as described in step 2.
(§2) Proceed to the next step. Pipette 100 μl of mixed TMB Substrate Solution to all wells, including the […]
(§3) available on a rotator set at 100 rpm. Avoid direct exposure to intense light. The point, at which the substrate reaction is stopped, is often determined by the ELISA reader. Many ELISA readers record absorbance only up to 2.0 O.D. Therefore, the color development within individual microwells must be watched by the person running the assay and the substrate reaction stopped before positive wells are no longer properly detectable. Stop the enzyme reaction by quickly pipetting 100 μL of Stop Solution into each well, including the blank wells. It is important that the Stop Solution is spread quickly and uniformly throughout the microwells to completely inactivate the enzyme. Results must be read immediately after the Stop Solution is added or within one hour if the microwell strips are stored at 2 - 8°C in the dark. Read absorbance of each microwell on a spectrophotometer using 450 nm as the primary wave length.
4.2.6. Cytochrome C assay […]
cytochrome C, and lysed with Cell Extraction Buffer. This lysate was diluted in Standard Diluent Buffer over the range of the assay and measured for cytochrome C content. (Cells are Plated in cells/well in a volume of 100µl complete growth medium + 100 µl of the tested compound + 50 µl of 1X biotin conjugated antibody+ 100 µl of 1X streptavidin-HRP+ 100 µL TMB substrate soln of per well in a 96-well plate for 24 hours before assay).
4.3. Statistical analysis
Computerized Prism 5 program was used to statistically analyzed data using one-way ANOVA test followed by Tukey’s as post ANOVA for multiple comparison at P ≤.05. Data were presented as […]

caspase-8 = test: Caspase-8 activation assay; conditions: for Caspase-8 Fold Change: vs control cells
Bcl-2 = Bcl-2 inhibition assay; conditions: for Bcl-2 Conc: A-549; for Bcl-2 Fold Reduction: A-549, vs control
Method: 4.2.5. Bcl-2inhibition assay
Mix all reagents thoroughly without foaming before use. Wash the microwells twice with approximately 300 μL Wash Buffer per well with thorough aspiration of microwell contents between washes. Take caution not to scratch the surface of the microwells. After the last wash, empty the wells and tap microwell strips on absorbent pad or paper towel to remove excess Wash Buffer. Use the microwell strips immediately after washing or place upside down on a wet absorbent paper for not […]
longer than 15 minutes. […] Add 100 μL of Sample Diluent in duplicate to all standard wells and to the blank wells. Prepare standard (1:2 dilution) in duplicate ranging from 32 ng/mL to 0.5 ng/mL. Add 100 μL of Sample Diluent, in duplicate, to the blank wells. Add 80 μL of Sample Diluent, in duplicate, to the sample wells. Add 20 μL of each Sample, in duplicate, to the designated wells. Add 50 μL of diluted biotin-conjugate to all wells, including the blank wells. Cover […]
Remove plate cover and empty the wells. […]
as §1, §2
as §3, with “length. […]” for “length.”

[1] = system: four tested cancer cell lines (A-549, MCF-7, Panc-1, HT-29); test: Antiproliferative assay, average over the four cell lines; conditions: for GI50: Homo sapiens, mean of the four cancer cell lines
Method: The newly synthesized compounds were tested for antiproliferative activity against four different types of cancer cells: A-549 (epithelial cancer cell line), MCF-7 (breast cancer cell line), Panc-1 (pancreas cancer cell line), and HT-29 (colon cancer cell line).
After 24 h, medium was removed from the plates and the compounds in (in 0.1% DMSO) were added (in 200 μL medium to yield a final concentration of 0.1% v/v) to the wells of plates. A single compound was designated with four wells followed by incubation of plates for 96h at 37°C. After incubation, medium was removed completely from the plates followed by addition of MTT (0.4 mg/mL in medium) to each well and subsequent incubation of plates for 3h. MTT (along with the medium) was removed and DMSO (150μL) was added to each well of the culture plates, followed by vortexing and subsequent measurement of absorbance (at 540 nm) using microplate reader. The data are shown as percentage inhibition of proliferation in comparison with controls containing 0.1% 4.2.1.2. Assay for antiproliferative effect
To explore the antiproliferative potential of compounds MTT assay was performed according to previously reported procedure using different cell lines to explore the antiproliferative potential of compounds propidium iodide fluorescence assay was performed using different cell lines. To calculate the total nuclear DNA, a fluorescent dye (propidium iodide, PI) is used which can attach to the DNA, thus offering a quick and precise technique. PI cannot pass through the cell membrane and its signal intensity can be considered as directly proportional to quantity of cellular DNA. Cells whose cell membranes are damaged or have changed permeability are counted as dead ones. The assay was performed by seeding the cells of different cell lines at a density of 3000-7500 cells/well (in 200µl medium) in culture plates followed by incubation for 24h at 37 °C in humidified 5% CO2/95% air atmospheric conditions. The medium was removed; the compounds were added to the plates at 10 µM concentrations (in 0.1% DMSO) in triplicates, followed by incubation for 48 h. DMSO (0.1%) was used as control. After incubation, medium was removed followed by the addition of PI (25 µl, 50µg/mL in water/medium) to each well of the plates. At -80 °C, the plates were allowed to freeze for 24 h, followed by thawing at 25 °C. A fluorometer (Polar-Star BMG Tech) was used to record the readings at excitation and emission wavelengths of 530 and 620 nm for each well. The percentage cytotoxicity of compounds was calculated using the following formula:
Where ATC= Absorbance of treated cells and AC= Absorbance of control. Erlotinib was used as positive control in the assay.

GI50 [1] [nM] | fold more potent than 4c (GI50) ([1]; relative to 4c) [fold] | fold less potent than erlotinib (GI50) ([1]; relative to erlotinib) [fold] | Compound | Cytochrome C Conc (Cytochrome C) [ng/mL] | Cytochrome C Fold Change (Cytochrome C) | Caspase-8 Conc (caspase-8) [ng/mL] | Caspase-8 Fold Change (caspase-8) | Bcl-2 Conc (Bcl-2) [ng/mL] | Bcl-2 Fold Reduction (Bcl-2)
34 |  |  | O=c1cc(-n2cc(COc3cccc4cccc(OCc5cn(-c6cc(=O)[nH]c7ccccc67)nn5)c34)nn2)c2ccccc2[nH]1 [Compound 4a, 4,4′-(((naphthalene-1,8-diylbis(oxy))bis(methylene))bis(1H-1,2,3-triazole-4,1-diyl))-bis-(quinolin-2(1H)-one)] | 0.80 | 16 | 1.20 | 6 | 1.05 | 5
45 | 1.8 | 1.4 | Cc1ccc2[nH]c(=O)cc(-n3cc(COc4cccc5cccc(OCc6cn(-c7cc(=O)[nH]c8ccc(C)cc78)nn6)c45)nn3)c2c1 [Compound 4b, 4,4′-(((naphthalene-1,8-diylbis(oxy))bis(methylene))bis(1H-1,2,3-triazole-4,1-diyl))-bis(6-methylquinolin-2(1H)-one)] | 0.70 | 14 | 0.80 | 4 | 1.17 | 4
